{"source": "patent US20220096592A1", "about": "“PIC1 VARIANTS WITH IMPROVED SOLUBILITY AND METHODS OF USING THE SAME” (priority 2019, published 2022)", "key": {"[1]": {"tested_on": "transfused human platelets", "assay": "human platelets transfused into Wistar rats (platelet refractoriness model)", "type": "in vivo, Wistar rat", "procedure": "Male Wistar rats approximately 16 weeks old and 250 grams in weight were purchased (Hilltop Scottdale, Pa.) with indwelling intra jugular catheters in place. Rats were sedated with ketamine and acepromazine throughout the course of the experiment with monitoring of vital signs. PIC1 infusions were performed 30 seconds prior to transfusion with PKH26 stained human platelets. Blood samples were collected into K2EDTA microtainer tubes (BD, Franklin Lakes, N.J., USA) from the animals prior to transfusion and then at 0.5, 2, 5, 20, 60 and 120 min after transfusion. Upon completion of the final blood draw, the animals were euthanized using Fatal Plus (Vortech Pharmaceuticals, Dearborn, Mich., USA). A necropsy was completed after euthanasia to collect organs for histopathology.\nFlow cytometry was performed using a FACSCalibur flow cytometer (Becton Dickinson, Franklin Lakes, N.J., USA) with DXP 8 Color 488/637/407 upgrade (Cytek Development, Freemont, Calif., USA). The data was acquired using Cytek FlowJo CE version 7.5.110.7. Prior to analysis on the flow cytometry machine, whole rat blood was spun at 500×g for 5 min. The plasma platelet layer was removed and then diluted 1:10 with PBS. Approximately 20,000 events selected for platelet size were run on the […]. Data was analyzed using FlowJo V10.4.2 (FlowJo LLC, Ashland, Oreg., USA).\nThe unstained native rat platelets are to the left of the vertical line, and the stained transfused platelets are to the right. […] This difference is not noticeable at two minutes.\nTotal platelet counts for rats transfused with unstained platelets treated with PIC1 or saline control (as shown in FIG. 12B) were evaluated in order to evaluate if similar trends could be determined for unstained platelets. Platelet counts were measured for each blood sample by Antech Diagnostics (Chesapeake, Va.). Decreases in platelet counts were calculated for each time point compared with the maximal platelet count immediately after transfusion at 30 seconds."}, "[2]": {"tested_on": "C3 activation on the platelet surface", "assay": "iC3b ELISA of antibody-sensitized human platelets in normal human serum", "type": "cell-based", "procedure": "(§1) For experiments sensitizing platelets with human anti-platelet antibody, purified platelets were treated with 4% ITP sera for 15 minutes at 30° C. before adding 2% normal human complement sufficient sera and incubating for 30 minutes at 37° C. For samples containing PIC1, sera and PIC1 were pre-incubated for 5 minutes before combining with sensitized platelets. Samples were then spun and supernatant was removed for C5a analysis by ELISA. A C5a ELISA kit (R&D Systems) was used per manufacturer's instructions. The cells were washed once with GVBS^−− and once with water to lyse the platelets. The remaining cell pellet was treated with 25 mM methylamine for 1 hour at 37° C., spun, and the supernatant was analyzed for iC3b by ELISA. The ELISA for iC3b was performed as previously described, utilizing a goat anti-human C3 antibody (Complement Technology, Tyler, Tex.) for capture, a mouse anti-human iC3b antibody (Quidel, San Diego, Calif.) for probing, and a goat anti-mouse HRP (Sigma-Aldrich, St Louis, Mo.) for detection.\nHuman platelets were incubated with sensitizing antibody, NHS, or both. […] Complement attack of the platelets and cell viability were assayed. C3 is the central component of the complement activation cascades. The C3 fragment iC3b is an opsonin that contributes to phagocytosis. […]"}, "[3]": {"tested_on": "C5a generation", "assay": "C5a ELISA of supernatant, antibody-sensitized human platelets in normal human serum", "type": "cell-based", "procedure": "as §1\nPlasma recovered from these experiments was then assayed for the pro-inflammatory anaphylatoxin C5a by ELISA."}, "[4]": {"tested_on": "complement activation", "settings": "administered intravascularly into rats, by 30 seconds; cited from earlier work"}, "[5]": {"tested_on": "Wistar rat sera complement-mediated killing of human platelets", "assay": "viability of human platelets in Wistar rat sera (Presto Blue)", "type": "cell-based", "settings": "increasing concentrations, vs platelets in normal rat sera, P<0.017, FIG. 7C", "procedure": "For experiments using rat sera, purified platelets were incubated with 5% Wistar rat sera at different time points (5 min, 20 min and 60 min) in a 37° C. bath. Thereafter, GVBS^−− was added to the mixture and this was spun at 500 g for 5 min at 22° C. After resuspending with 250 ul of PBS, PrestoBlue was added to the cells at a 1:10 dilution and incubated in a 37° C. water bath for 30 min. The cells were then plated and read on a microplate reader at 530 nm. With the addition of PIC1 to sera, there was a preincubation time of 5 minutes before addition of platelets.\nIn order to evaluate the extent to which rat sera killing of human platelets is mediated by the classical pathway of complement, we utilized PA-dPEG24."}, "[6]": {"tested_on": "purified human neutrophils", "assay": "NETosis assay (immune complex activated serum and H2O2; PicoGreen free DNA, fluorescence microscopy)", "type": "cell-based", "settings": "neutrophils stimulated with immune complexes, FIG. 5B third row", "procedure": "NETosis assays with immune complexes were performed as previously described. Briefly, normal human serum was stimulated with ovalbumin-antiovalbumin immune complexes in GVBS^++ for 30 minutes at 37° C. This mixture along with 0.05% H2O2 was then added to purified human neutrophils resuspended in RPMI with or without sarcosine variants (2 mM), allowing NETosis to occur. Quantitation of free DNA released from the neutrophils was performed using PicoGreen. Slides were stained with DAPI (Southern Biotech, Birmingham, Ala.). The following antibodies were used to visualize formation of NETs: • (i) mouse anti-elastase (Invitrogen, Carlsbad, Calif.) as a primary antibody with the secondary goat anti-mouse antibody Alexa Fluor 568 (Novus Biologicals, Centennial, Colo.) and • (ii) rabbit anti-histone H3 (Abcam, Cambridge Mass.) with goat anti-rabbit antibody Alexa Fluor 488 (Novus Biologicals). Fluorescence microscopy using an Olympus BX53 microscope was performed to visualize NETs.\nThe peptide variants were tested for inhibition of NETosis. In this assay, purified human neutrophils were stimulated with normal human serum activated with ovalbumin-antiovalbumin immune complexes and hydrogen peroxide. Free DNA expressed from the neutrophils was then measured in a PicoGreen assay. […] Direct visualization of neutrophil extracellular trap (NET) formation by fluorescence microscopy was used to confirm the above NETosis results with the 18 variant. Human neutrophils were purified and stimulated on glass slides then stained with DAPI to visualize DNA and probed with anti-neutrophil elastase (αNE) and anti-histone H3 (αhistone), as previously described. […] Fluorescence microscopy visualization of NETs confirmed the findings seen for quantitative measurements of free DNA."}}, "note": "“Also recorded” adds a separate entry of the source.", "data": [{"substance": "H2N-IALILEPICCQERAA-dPEG24 (H-IALILEPICCQERAA-dPEG24; cysteine pairing not given here) [PA-dPEG24, 15-amino acid PEGylated peptide, 24 PEG moieties at the C-terminus]", "values": [{"measurement": "increase in transfused platelets compared with control", "setting": "[1]; 160 mg/kg infused 30 seconds before transfusion, 0.5 minutes after transfusion, P=0.05, FIG. 12A", "value": 2, "unit": "fold"}, {"measurement": "stained transfused platelets, representative flow cytometry", "setting": "[1]; 160 mg/kg, 0.5 minutes after transfusion, vs vehicle, FIG. 11", "value": "increased numbers of stained transfused platelets"}, {"measurement": "amount of transfused platelets compared with control", "setting": "[1]; 160 mg/kg, later time points than 0.5 minutes", "value": "no significant difference in the amount of transfused platelets"}, {"measurement": "decrease in total platelet count relative to 30 seconds after transfusion", "setting": "[1]; unstained platelets, two minutes (P=0.04) and 20 minutes (P=0.03), FIG. 12B", "value": "Statistically significant greater decreases in the platelet count were found for saline-treated versus PA-dPEG24-treated animals"}, {"measurement": "iC3b bound to platelets", "setting": "[2]; 0.8 mM", "value": "level similar to that of the background level measured for sensitizing antibody alone"}, {"measurement": "iC3b opsonization of platelets, dose response", "setting": "[2]; sensitizing antibody and NHS, increasing concentrations, FIG. 6A", "value": "decreased iC3b opsonization of the platelets in a dose-dependent manner"}, {"measurement": "inhibition of C5a generation, in words", "setting": "[3]; 1.5 mM, P=0.028", "value": "Significant inhibition of C5a generation"}, {"measurement": "decrease of C5a generation", "setting": "[3]; 3.0 mM, P=0.006", "value": 44, "unit": "%"}, {"measurement": "C5a generation, dose response", "setting": "[3]; sensitizing antibody and NHS, increasing concentrations, FIG. 6B", "value": "dose-dependently inhibited C5a generation"}, {"measurement": "systemic inhibition of complement activation", "setting": "[4]", "value": "> 90", "unit": "%"}, {"measurement": "viability of human platelets in rat sera", "setting": "[5]", "value": "dose-dependent improvement in platelet viability; also recorded: improved survival for human platelets in rat sera for all doses tested compared to control"}, {"measurement": "NET formation by fluorescence microscopy", "setting": "[6]", "value": "dramatic reduction in NETs"}]}]}
